Laboratory results as given in patent publication US12384797B2, “Thioeno[3,2-b] pyridin-7-amine compounds for treating familial dysautonomia” (PTC THERAPEUTICS, INC., priority 2019, dated 2025).

These compounds were tested on Elongator complex protein 1 (ELP1, also referred to as IKBKAP) (assay: IKBKAP-HTRF assay (IKBKAP protein in lysates of FD patient-derived fibroblasts)). Details: 48 hours incubation, 7-point concentration curve.
Assay type: cell-based, human
In short: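 Sandwich HTRF with two labelled anti-IKAP antibodies (overnight, 4 °C) measured IKBKAP in lysates of FD patient fibroblasts. Cells were exposed to compound for 48 h at 37 °C (7-point curve, 3.16-fold steps, triplicates). EC2x is the dose doubling IKBKAP versus DMSO control; MFI is sample ΔF divided by vehicle ΔF.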

| Structure (SMILES) | EC2x for IKBKAP protein expression (concentration producing two times the amount of IKBKAP protein vs DMSO vehicle control) | MFI (maximum fold increase in IKBKAP protein abundance relative to the vehicle control) |
| --- | --- | --- |
| C[C@H](N)C(F)c1sc2c(NCc3ccco3)cc(Cl)nc2c1Br (stereo partly drawn) [Compound 154, 2-[(2S)-2-amino-1-fluoropropyl]-3-bromo-5-chloro-N-[(furan-2-yl)methyl]thieno[3,2-b]pyridin-7-amine] | ***** (≤0.005 μM is indicated by five stars (*****)) | **** (between >3.9 and ≤4.9 is indicated by four stars (****)) |
| C[C@H](N)C(O)c1sc2c(NCc3cccs3)cc(Cl)nc2c1Br (stereo partly drawn) [Compound 155, (2S)-2-amino-1-(3-bromo-5-chloro-7-{[(thiophen-2-yl)methyl]amino}thieno[3,2-b]pyridin-2-yl)propan-1-ol] | * (An EC2x>1 μM is indicated by one star (*)) | * (An MFI≤1.9 is indicated by one star (*)) |
| C[C@H](N)C(=O)c1sc2c(NCc3cccs3)cc(Cl)nc2c1Br [Compound 156, (2S)-2-amino-1-(3-bromo-5-chloro-7-{[(thiophen-2-yl)methyl]amino}thieno[3,2-b]pyridin-2-yl)propan-1-one] | *** (between >0.02 μM and ≤0.5 μM is indicated by three stars (***)) | *** (between >2.9 and ≤3.9 is indicated by three stars (***)) |
| C[C@H](N)C(=O)c1sc2c(NCc3ccco3)cc(Cl)nc2c1Br [Compound 157, (2S)-2-amino-1-(3-bromo-5-chloro-7-{[(furan-2-yl)methyl]amino}thieno[3,2-b]pyridin-2-yl)propan-1-one] | *** (between >0.02 μM and ≤0.5 μM is indicated by three stars (***)) | **** (between >3.9 and ≤4.9 is indicated by four stars (****)) |
| C[C@H](N)C(F)c1sc2c(NCc3cccs3)cc(Cl)nc2c1Br (stereo partly drawn) [Compound 158, 2-[(2S)-2-amino-1-fluoropropyl]-3-bromo-5-chloro-N-[(thiophen-2-yl)methyl]thieno[3,2-b]pyridin-7-amine] | ***** (≤0.005 μM is indicated by five stars (*****)) | ***** (>4.9 is indicated by five stars (*****)) |
| C[C@H](N)C(O)c1sc2c(NCc3nccs3)cc(Cl)nc2c1Br (stereo partly drawn) [Compound 159, (2S)-2-amino-1-(3-bromo-5-chloro-7-{[(1,3-thiazol-2-yl)methyl]amino}thieno[3,2-b]pyridin-2-yl)propan-1-ol] | *** (between >0.02 μM and ≤0.5 μM is indicated by three stars (***)) | ** (between >1.9 and ≤2.9 is indicated by two stars (**)) |
| C[C@H](N)C(=O)c1sc2c(NCc3nccs3)cc(Cl)nc2c1Br [Compound 160, (2S)-2-amino-1-(3-bromo-5-chloro-7-{[(1,3-thiazol-2-yl)methyl]amino}thieno[3,2-b]pyridin-2-yl)propan-1-one] | *** (between >0.02 μM and ≤0.5 μM is indicated by three stars (***)) | **** (between >3.9 and ≤4.9 is indicated by four stars (****)) |
| C[C@H](N)C(F)c1sc2c(NCc3nccs3)cc(Cl)nc2c1Br (stereo partly drawn) [Compound 161, 2-[(2S)-2-amino-1-fluoropropyl]-3-bromo-5-chloro-N-[(1,3-thiazol-2-yl)methyl]thieno[3,2-b]pyridin-7-amine] | ***** (≤0.005 μM is indicated by five stars (*****)) | *** (between >2.9 and ≤3.9 is indicated by three stars (***)) |
| N[C@@H](CO)Cc1cc2nc(Cl)cc(NCc3cccs3)c2s1 [Compound 162, (2R)-2-amino-3-(5-chloro-7-{[(thiophen-2-yl)methyl]amino}thieno[3,2-b]pyridin-2-yl)propan-1-ol] | ***** (≤0.005 μM is indicated by five stars (*****)) | **** (between >3.9 and ≤4.9 is indicated by four stars (****)) |
| Cc1c(NC[C@H](C)N)sc2c(NCc3cccs3)cc(Cl)nc12 [Compound 163, N^2-[(2S)-2-aminopropyl]-5-chloro-3-methyl-N^7-[(thiophen-2-yl)methyl]thieno[3,2-b]pyridine-2,7-diamine] | *** (between >0.02 μM and ≤0.5 μM is indicated by three stars (***)) | **** (between >3.9 and ≤4.9 is indicated by four stars (****)) |
| Cc1c(NC[C@@H](C)N)sc2c(NCc3cccs3)cc(Cl)nc12 [Compound 164, N^2-[(2R)-2-aminopropyl]-5-chloro-3-methyl-N^7-[(thiophen-2-yl)methyl]thieno[3,2-b]pyridine-2,7-diamine] | *** (between >0.02 μM and ≤0.5 μM is indicated by three stars (***)) | *** (between >2.9 and ≤3.9 is indicated by three stars (***)) |
| C[C@@H](O)[C@H](N)Cc1sc2c(NCc3ccco3)cc(Cl)nc2c1Br [Compound 165, (2R,3R)-3-amino-4-(3-bromo-5-chloro-7-{[(furan-2-yl)methyl]amino}thieno[3,2-b]pyridin-2-yl)butan-2-ol] | ***** (≤0.005 μM is indicated by five stars (*****)) | ***** (>4.9 is indicated by five stars (*****)) |
| C#C[C@H](N)Cc1sc2c(NCc3ccco3)cc(Cl)nc2c1Cl [Compound 166, 2-[(2R)-2-aminobut-3-yn-1-yl]-3,5-dichloro-N-[(furan-2-yl)methyl]thieno[3,2-b]pyridin-7-amine] | ***** (≤0.005 μM is indicated by five stars (*****)) | **** (between >3.9 and ≤4.9 is indicated by four stars (****)) |
| C[S+]([O-])C[C@H](N)Cc1sc2c(NCc3ccco3)cc(Cl)nc2c1Cl (stereo partly drawn) [Compound 167, [(2R)-2-amino-3-(3,5-dichloro-7-{[(furan-2-yl)methyl]amino}thieno[3,2-b]pyridin-2-yl)propyl](methyl)sulfaniumolate] | ***** (≤0.005 μM is indicated by five stars (*****)) | ***** (>4.9 is indicated by five stars (*****)) |
